Measurements reported in patent US20120046302A1, “METHODS OF TREATING CNS DISORDERS” (priority 2008, published 2012).
Where a name gives a salt, the structure may show the parent alone.

Key:
5-HT2C = biological target: T1, 5-HT2C (Homo sapiens, UniProt P28335); details: background; cited from earlier work
T1 sequence (P28335 33-458): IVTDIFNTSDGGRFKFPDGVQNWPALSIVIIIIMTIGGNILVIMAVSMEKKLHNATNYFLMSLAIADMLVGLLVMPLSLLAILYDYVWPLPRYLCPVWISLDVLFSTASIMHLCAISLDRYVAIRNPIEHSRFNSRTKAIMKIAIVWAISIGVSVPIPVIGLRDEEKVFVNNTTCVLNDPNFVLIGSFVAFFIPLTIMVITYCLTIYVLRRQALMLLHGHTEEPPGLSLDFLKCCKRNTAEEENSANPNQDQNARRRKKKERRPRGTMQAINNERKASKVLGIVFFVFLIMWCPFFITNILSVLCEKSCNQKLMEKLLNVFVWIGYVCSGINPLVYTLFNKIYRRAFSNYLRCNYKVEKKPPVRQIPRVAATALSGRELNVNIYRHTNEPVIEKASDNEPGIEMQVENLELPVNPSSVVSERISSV

[1] = tested on: adrenergic receptor sites; details: background; cited from earlier work
histamine H1 = histamine H1 (Homo sapiens, UniProt P35367); details: background; cited from earlier work
NMDA receptor = details: noncompetitive NMDA receptor antagonists; background; cited from earlier work
[2] = tested on: patients with bipolar I disorder experiencing a manic or mixed episode; assay: Multicenter, open-label study of memantine hydrochloride in acute treatment of hospitalized patients with bipolar I disorder (Example 1); type: in vivo, human; details: for MRS Total Score, Change at Day 21 (LOCF), Mean ± SEM / YMRS Total Score, Change at Day 21 (LOCF), Mean ± SEM / MRS Total Score, Change at Day 21 (OC), Mean ± SEM / YMRS Total Score, Change at Day 21 (OC), Mean ± SEM / CGI-I Rating, Day 21, Mean ± SEM / CGI-S Rating, Change at Day 21, Mean ± SEM / MADRS Total Score, Change at Day 21, Mean ± SEM / PANSS Total Score, Change at Day 21, Mean ± SEM / PANSS-EC Score, Change at Day 21, Mean ± SEM: 21 days; for MRS Total Score, Change at Day 21 (LOCF), Mean ± SEM / YMRS Total Score, Change at Day 21 (LOCF), Mean ± SEM / CGI-I Rating, Day 21, Mean ± SEM / CGI-S Rating, Change at Day 21, Mean ± SEM / MADRS Total Score, Change at Day 21, Mean ± SEM / PANSS Total Score, Change at Day 21, Mean ± SEM / PANSS-EC Score, Change at Day 21, Mean ± SEM / MRS Response, % of patients / MRS Response, n of patients / YMRS Response, % of patients / YMRS Response, n of patients: ITT; for MRS Total Score, Change at Day 21 (OC), Mean ± SEM / YMRS Total Score, Change at Day 21 (OC), Mean ± SEM: observed cases; for CGI-I Rating, Day 21, Mean ± SEM / CGI-S Rating, Change at Day 21, Mean ± SEM / MADRS Total Score, Change at Day 21, Mean ± SEM / PANSS Total Score, Change at Day 21, Mean ± SEM / PANSS-EC Score, Change at Day 21, Mean ± SEM / MRS Response, % of patients / MRS Response, n of patients / YMRS Response, % of patients / YMRS Response, n of patients: LOCF; for MRS Response, % of patients / MRS Response, n of patients / YMRS Response, % of patients / YMRS Response, n of patients: Day 21, response = ≧50% reduction in total score from baseline
From the text: The entrance criteria for the patients included: Hospitalized adult inpatients, with bipolar I disorder by DSM-IV-TR criteria • Manic or mixed episode: ≧20 on the Young Mania Rating Scale (YMRS), with and without psychotic features; • Diagnosis based on clinical evaluation and confirmed using the Structured Clinical Interview for DSM Disorders. The following comorbid psychiatric diagnoses were allowed to enroll: Attention deficit hyperactivity disorder [ADHD], conduct disorder, obsessive-compulsive disorder, anxiety disorders, and substance abuse. Additional psychotropic medications were not allowed. Patients were assigned to 21-days of treatment in one of three groups: Group 1, 20 mg memantine hydrochloride per day (range 20-30 mg memantine per day); Group 2, 30 mg memantine hydrochloride per day (range 20-40 mg memantine per day); Group 3, 40 mg memantine hydrochloride per day (range 30-50 mg memantine per day). […] Dose modification was continued to study completion or early termination. Efficacy measures included the Young Mania Rating Scale (YMRS) and the Mania Rating Scale (MRS) (≧50% reduction in total score from baseline). The change from baseline was also assessed using the Positive and Negative Syndrome Scale (PANSS) in patients with psychiatric symptoms, Positive and Negative Syndrome Scale-Excited Component (PANSS-EC), Clinical Global Impression Severity (CGI-S) and Improvement (CGI-I) scores, and the change from baseline in the Montgomery Asberg Depression Rating Scale (MADRS). […] The mean duration of treatment was 16.1 days (Group I), 14.7 days (Group 2) and 17.3 days (Group 3).

[3] = tested on: ICV ouabain-induced motoric hyperactivity; details: ouabain treated (ICV) versus sham 53.1±SD 50.0; El-Mallakh et al. 2003; cited from earlier work
[4] = Group 1: 20 mg per day (range 20-30 mg), n=12
[5] = Group 1: 20 mg per day (range 20-30 mg), n=6
[6] = Group 2: 30 mg per day (range 20-40 mg), n=11
[7] = Group 2: 30 mg per day (range 20-40 mg), n=6
[8] = Group 3: 40 mg per day (range 30-50 mg), n=10
[9] = Group 3: 40 mg per day (range 30-50 mg), n=8

Chain of histamine H1 (P35367 whole entry): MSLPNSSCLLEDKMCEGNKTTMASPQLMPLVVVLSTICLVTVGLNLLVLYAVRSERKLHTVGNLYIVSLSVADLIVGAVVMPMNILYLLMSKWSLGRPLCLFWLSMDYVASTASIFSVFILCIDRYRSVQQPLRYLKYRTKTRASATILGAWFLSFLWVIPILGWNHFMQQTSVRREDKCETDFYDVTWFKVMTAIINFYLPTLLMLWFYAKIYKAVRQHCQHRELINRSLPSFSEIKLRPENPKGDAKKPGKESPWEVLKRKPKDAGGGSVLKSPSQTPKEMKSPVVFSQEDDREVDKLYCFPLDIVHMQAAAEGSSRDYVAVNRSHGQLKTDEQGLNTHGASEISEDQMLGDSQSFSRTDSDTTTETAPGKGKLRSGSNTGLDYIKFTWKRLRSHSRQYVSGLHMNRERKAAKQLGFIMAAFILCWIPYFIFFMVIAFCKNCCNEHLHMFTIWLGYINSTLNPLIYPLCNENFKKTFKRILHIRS

In the case of `CN(C)C(=O)N[C@H]1CC[C@H](CCN2CCN(c3cccc(Cl)c3Cl)CC2)CC1` [Cariprazine hydrochloride, trans-1-{4-[2-[4-(2,3-dichlorophenyl)-piperazin-1-yl]-ethyl]-cyclohexyl}-3,3-dimethyl-urea hydrochloride], the “Potency at 5-HT2C receptor site (in words)” value (5-HT2C) is listed as “low potency”, the “Potency at adrenergic receptor sites (in words)” value [1] is listed as “low potency” and the “Potency at histamine H1 receptor site (in words)” value (histamine H1) is listed as “low potency”.

For `CC12CC3CC(C)(C1)CC(N)(C3)C2` [Memantine, 1-amino-3,5-dimethyl adamantane], the “Affinity for the NMDA receptor (in words)” value (NMDA receptor) is given as “moderate affinity”.

In the case of `CC12CC3CC(C)(C1)CC(N)(C3)C2` [memantine hydrochloride], the “MRS Total Score, Change at Day 21 (LOCF), Mean ± SEM” value [2, 4] was −9.8 ± 2.2, the “YMRS Total Score, Change at Day 21 (LOCF), Mean ± SEM” value [2, 4] was −9.5 ± 2.8 and the “MRS Total Score, Change at Day 21 (OC), Mean ± SEM” value [2, 5] was −15.3 ± 1.7. For the same molecule, the “YMRS Total Score, Change at Day 21 (OC), Mean ± SEM” value [2, 5] was −17.0 ± 1.9, the “CGI-I Rating, Day 21, Mean ± SEM” value ([2]; Group 1: 20 mg per day, n=12) was 3.3 ± 0.5 and the “CGI-S Rating, Change at Day 21, Mean ± SEM” value ([2]; Group 1: 20 mg per day, n=12) was −0.8 ± 0.3. The “MADRS Total Score, Change at Day 21, Mean ± SEM” value ([2]; Group 1: 20 mg per day, n=12) was −3.4 ± 1.8, the “PANSS Total Score, Change at Day 21, Mean ± SEM” value ([2]; Group 1: 20 mg per day, n=12) was −5.1 ± 3.9 and the “PANSS-EC Score, Change at Day 21, Mean ± SEM” value ([2]; Group 1: 20 mg per day, n=12) was −0.7 ± 1.5. The “MRS Response, % of patients” value ([2]; Group 1: 20 mg per day, n=12) was 50.0%, the “MRS Response, n of patients” value ([2]; Group 1: 20 mg per day, n=12) was 6 n and the “YMRS Response, % of patients” value ([2]; Group 1: 20 mg per day, n=12) was 50.0%. For the same molecule, the “YMRS Response, n of patients” value ([2]; Group 1: 20 mg per day, n=12) was 6 n, the “MRS Total Score, Change at Day 21 (LOCF), Mean ± SEM” value [2, 6] was −7.4 ± 2.6 and the “YMRS Total Score, Change at Day 21 (LOCF), Mean ± SEM” value [2, 6] was −6.4 ± 3.8. The “MRS Total Score, Change at Day 21 (OC), Mean ± SEM” value [2, 7] was −13.0 ± 2.1, the “YMRS Total Score, Change at Day 21 (OC), Mean ± SEM” value [2, 7] was −15.5 ± 1.5 and the “CGI-I Rating, Day 21, Mean ± SEM” value ([2]; Group 2: 30 mg per day, n=11) was 3.6 ± 0.5. The “CGI-S Rating, Change at Day 21, Mean ± SEM” value ([2]; Group 2: 30 mg per day, n=11) was −0.7 ± 0.4, the “MADRS Total Score, Change at Day 21, Mean ± SEM” value ([2]; Group 2: 30 mg per day, n=11) was 0.0 ± 2.7 and the “PANSS Total Score, Change at Day 21, Mean ± SEM” value ([2]; Group 2: 30 mg per day, n=11) was −1.5 ± 5.8. For the same molecule, the “PANSS-EC Score, Change at Day 21, Mean ± SEM” value ([2]; Group 2: 30 mg per day, n=11) was −0.5 ± 1.8, the “MRS Response, % of patients” value ([2]; Group 2: 30 mg per day, n=11) was 27.3% and the “MRS Response, n of patients” value ([2]; Group 2: 30 mg per day, n=11) was 3 n. The “YMRS Response, % of patients” value ([2]; Group 2: 30 mg per day, n=11) was 45.5%, the “YMRS Response, n of patients” value ([2]; Group 2: 30 mg per day, n=11) was 5 n and the “MRS Total Score, Change at Day 21 (LOCF), Mean ± SEM” value [2, 8] was −7.2 ± 2.0. The “YMRS Total Score, Change at Day 21 (LOCF), Mean ± SEM” value [2, 8] was −7.9 ± 2.4, the “MRS Total Score, Change at Day 21 (OC), Mean ± SEM” value [2, 9] was −9.3 ± 1.8 and the “YMRS Total Score, Change at Day 21 (OC), Mean ± SEM” value [2, 9] was −10 ± 2.3. The “CGI-I Rating, Day 21, Mean ± SEM” value ([2]; Group 3: 40 mg per day, n=10) was 2.9 ± 0.5, the “CGI-S Rating, Change at Day 21, Mean ± SEM” value ([2]; Group 3: 40 mg per day, n=10) was −0.6 ± 0.3 and the “MADRS Total Score, Change at Day 21, Mean ± SEM” value ([2]; Group 3: 40 mg per day, n=10) was −3.3 ± 1.7. The “PANSS Total Score, Change at Day 21, Mean ± SEM” value ([2]; Group 3: 40 mg per day, n=10) was −7.7 ± 3.8, the “PANSS-EC Score, Change at Day 21, Mean ± SEM” value ([2]; Group 3: 40 mg per day, n=10) was −0.7 ± 1.4 and the “MRS Response, % of patients” value ([2]; Group 3: 40 mg per day, n=10) was 10.0%. The “MRS Response, n of patients” value ([2]; Group 3: 40 mg per day, n=10) was 1 n, the “YMRS Response, % of patients” value ([2]; Group 3: 40 mg per day, n=10) was 30.0% and the “YMRS Response, n of patients” value ([2]; Group 3: 40 mg per day, n=10) was 3 n. The “Effectiveness in the treatment of acute mania associated with bipolar disorder (in words)” value ([2]; overall conclusion of Example 1) was “surprisingly effective”.

For `CC1(C)CC(C)(C)CC(C)(N)C1` [neramexane, 1-amino-1,3,3,5,5-pentamethylcyclohexane], the “Affinity for the NMDA receptor (in words)” value (NMDA receptor) is listed as “moderate affinity”.

In the case of `C[C@@H]1O[C@@H](O[C@H]2C[C@@H](O)[C@]3(CO)[C@H]4[C@H](O)C[C@]5(C)[C@@H](C6=CC(=O)OC6)CC[C@]5(O)[C@@H]4CC[C@]3(O)C2)[C@H](O)[C@H](O)[C@H]1O` [ouabain], the “Open field exploratory activity” value [3] is listed as 258.7±316.6 squares traversed.
